Test results from PubChem BioAssay AID1996.
Converted amounts (≈) assume the structure as drawn.

Settings: buffer; pH 7.4; 200.0 µM

Row | solubility kinetic [µg/mL] | SMILES
1 | 39.5 (≈ 133 µM) | CCCn1c(COc2ccccc2OC)nc2ccccc21
2 | > 48.7 | CCN(c1cccc(C)c1)S(=O)(=O)c1csc(C(N)=O)c1
3 | > 45.8 | CC1CCC(NC(=O)Cn2cnc3sccc3c2=O)CC1 (centres undefined)
4 | < 0.2 | N#C/C(=C(/O)c1ccc(Cl)cc1)c1nc2ccccc2[nH]1
5 | < 0.3 | O=C(Nc1ccc(F)cc1)Nc1ccc2c(c1)CCC2
6 | > 35 | Cc1cccc(N2CC(C(=O)O)CC2=O)c1C (centres undefined)
7 | 46.2 (≈ 135 µM) | CCc1ccccc1NC(=O)COC(=O)C1C2CC3OC(=O)C1C3C2 (centres undefined)
8 | > 48.4 | O=C(NCCC(=O)N1CCCCCCC1)c1ccc(Cl)cc1
9 | 39.3 (≈ 139 µM) | CN(C)C(CNC(=O)c1cccc(C#N)c1)c1ccco1 (centres undefined)
10 | 30 (≈ 114 µM) | CSc1ccccc1NC(=O)c1csc(C)c1
11 | 4.4 (≈ 14.3 µM) | Cc1ccc(NC(=O)CN2C(=O)c3ccccc3C2=O)c(C)c1
12 | 9.6 (≈ 28.6 µM) | CC(=O)Nc1ccc(SCC(=O)Nc2ccc(Cl)cn2)cc1
13 | < 0.4 | O=C(Nc1ccc(-c2ccc([N+](=O)[O-])cc2)cc1)c1ccccc1F
14 | > 51.1 | COc1ccc(C(=O)Nc2ccccc2C(=O)N2CCOCC2)cc1
15 | 1 (≈ 3.06 µM) | CC(=O)c1cn(CC(=O)Nc2ccccc2Cl)c2ccccc12
16 | > 42 | O=S(=O)(NCCc1ccncc1)c1ccc(F)cc1
17 | 2.9 (≈ 10 µM) | Cc1cccc2nc(-c3ccco3)c(Nc3ccccc3)n12
18 | 35.6 (≈ 131 µM) | CCOc1ccc(NC(=O)NCc2ccccn2)cc1

Further lines, the compound ahead of its results:

Row | SMILES | solubility kinetic [µg/mL]
19 | Cc1ccc2nc(CCl)[n+]([O-])c(-c3ccccc3)c2c1 | 27.8 (≈ 97.6 µM)
20 | CC(C)C(=O)Nc1ccc2c(c1)Cc1cc(NC(=O)C(C)C)ccc1-2 | < 0.4
21 | Cc1ccc(S(=O)(=O)N(C)C)cc1NC(=O)C1CCC1 | 39.7 (≈ 134 µM)
22 | Cc1cc(C)c(C(=O)N(C)C2CCCN(Cc3ccccc3F)C2)o1 (centres undefined) | > 51.7
23 | O=C(NNC(=O)C1CCN(c2ncccn2)CC1)c1ccncc1 | > 49
24 | Cc1ccc2c(c1)cc(C(=O)N1CCN(c3ccccn3)CC1)n2C | 2.1 (≈ 6.28 µM)
25 | Cc1nc2cc(C(=O)N3CCN(C)CC3)ccc2n1C | 40.2 (≈ 148 µM)
26 | CCOC(=O)N1CCN(C(=O)C(C)c2ccc([N+](=O)[O-])cc2)CC1 (centres undefined) | > 50.3
27 | COc1ccc(C2C(C)C3(O)CC(C#N)(C(=O)N3)C2(C#N)C#N)cc1 (centres undefined) | > 50.5
28 | CN(C)NC(=S)NC1(C)CCS(=O)(=O)C1 (centres undefined) | > 37.7
29 | Cc1ccc(NC(=O)COC(=O)Cn2cnc3c2c(=O)n(C)c(=O)n3C)cc1 | > 57.8
30 | COc1ccccc1/C=C/C(=O)N1CCN(S(=O)(=O)c2cccs2)CC1 | 23.7 (≈ 60.4 µM)
31 | COc1ccc(-c2csc(NC(=O)Nc3ccccc3)n2)cc1 | 1.8 (≈ 5.53 µM)
32 | CN(C)S(=O)(=O)c1cccc(NC(=O)COc2ccc(S(=O)(=O)N3CCOCC3)cc2Cl)c1 | 5.4 (≈ 10.4 µM)
33 | Cc1nonc1CC(=O)N1CCCC(C(=O)c2ccc(Cl)cc2)C1 (centres undefined) | 48.2 (≈ 139 µM)
34 | O=C1OC(CO)CN1Cc1ccccc1 (centres undefined) | 30.3 (≈ 146 µM)
35 | Cc1ccc(/C=C(\C#N)C(=O)N2CCCC2)c(C)c1 | > 38.1
36 | Cc1ccc(N2CC(C(=O)N3CCOCC3)CC2=O)cc1Cl (centres undefined) | > 48.4
37 | Cc1cccc(NC(=O)C(C)Oc2ccc(C)nc2[N+](=O)[O-])c1 (centres undefined) | > 47.3
38 | Cc1ccc(-n2c(C)c(C)c3c(NCCCO)ncnc32)cc1 | > 46.6
39 | O=c1[nH]c(CSc2ccccc2)nc2c1oc1ccccc12 | 2.2 (≈ 7.13 µM)

Row | SMILES | solubility kinetic [µg/mL]
40 | CC1CCCC(N2CCN(C(=O)c3ccccc3F)CC2)C1 (centres undefined) | > 45.7
41 | COc1ccc2c(COC(=O)CNS(=O)(=O)c3ccccc3)cc(=O)oc2c1 | 46 (≈ 114 µM)
42 | CCOC(=O)CCn1cnc2ccc([N+](=O)[O-])cc2c1=O | 25.2 (≈ 86.5 µM)
43 | CCOc1ccc(C2NC(=O)c3ccccc3O2)cc1OCC (centres undefined) | 13.8 (≈ 44 µM)
44 | COc1ccc(CNC(=S)Nc2ccccc2F)cc1 | 34 (≈ 117 µM)
45 | O=C(c1ccncc1)c1ccc([N+](=O)[O-])cc1 | > 34.2
46 | CCC(NC(=S)NC1CCCCC1)c1ccc(C(C)C)cc1 (centres undefined) | 1.6 (≈ 5.02 µM)
47 | Cc1ccc(S(=O)(=O)CC(=O)c2ccccc2[N+](=O)[O-])cc1 | 42.8 (≈ 134 µM)
48 | COc1ccc(-c2nc(-c3cccnc3)no2)cc1OC | 25.8 (≈ 91.1 µM)
49 | Cc1ncc([N+](=O)[O-])n1CCN1C(=O)c2ccccc2C1=O | 44.3 (≈ 148 µM)
50 | CC(=O)c1nc2ccccc2n1CCc1ccccc1 | 27.5 (≈ 104 µM)
51 | O=S(=O)(NCCN1CCOCC1)c1cc(Cl)ccc1Cl | 41.6 (≈ 123 µM)
52 | O=C(NCCc1c[nH]c2ccccc12)c1ccc(F)cc1F | > 45
53 | CN(Cc1ccccc1)S(=O)(=O)c1ccc(Cl)c(C(=O)O)c1 | > 51
54 | CCC(=O)c1cn(CC(=O)Nc2ccccc2F)c2ccccc12 | 3.2 (≈ 9.87 µM)
55 | Fc1ccc(Nc2c3c(nc4ccccc24)CCC3)cc1 | 33.1 (≈ 119 µM)
56 | CC(C)(C)NC(=O)NC(=O)CN1CCN(Cc2ccccc2)CC1 | 45.3 (≈ 136 µM)
57 | N/C(CCS(=O)(=O)c1ccc(Cl)cc1)=N\OC(=O)c1ccccc1C(F)(F)F | 57 (≈ 131 µM)
58 | Cc1cc(C)c2c(NC(=O)CCl)nn(C)c2n1 | > 37.9
59 | Cc1ccc(CNC(=O)COC(=O)COc2ccc(C#N)cc2)cc1 | > 50.8
